Measured values taken from patent publication US8633250B2, “Cell repair and regeneration by suramin and related polysulfonated napthylureas” (MUSC Foundation for Research Development, priority 2006, dated 2014).

How the values were obtained:
[1] = tested on: renal proximal tubule cells (RPTC); assay: MTT assay of RPTC proliferation; format: cell-based, rabbit; conditions: for effect of inhibitor on suramin-induced RPTC proliferation (MTT assay): 50 μM suramin 48 hr, 10 μM AG1478, 20 μM LY294002, 10 μM U0126 or 10 μM PP1
Description: Isolation and culture of renal proximal tubules: Isolation and culture of renal proximal tubules were performed as described previously (Rodeheaver et al., 1990; Nowak and […], 1995; Nowak and […], 1996). Female New Zealand White rabbits (1.5-2.5 kg) were purchased from Myrtle's Rabbitry (Thompson Station, Tenn.). RPTC were isolated using the iron oxide perfusion method and grown in 6-well tissue culture dishes under improved conditions. The culture medium was an 1:1 mixture of DMEM/Ham's F-12 (without glucose, phenol red, or sodium pyruvate) supplemented with 15 mM HEPES buffer, 2.5 mM L-glutamine, 1 μM pyridoxine HCl, 15 mM sodium bicarbonate, and 6 mM lactate. Hydrocortisone (50 μM), selenium (5 ng/ml), human transferrin (5 μg/ml) bovine insulin (10 nM) and L-ascorbic acid-2-phosphate (50 μM) were added daily to fresh culture medium. Isolated tubules were plated at 1 mg protein/well in a 6-well plate. On day 2, RPTC were incubated in the presence and absence of various pharmacological inhibitors for different time periods as indicated in the figure legends. […] MTT assay: The 3-(4,5-dimethylthiazol-2-yl)-2,5-diphenyl-tetrazolium bromide (MTT) assay was used to assess cell proliferation (Kooistra et al., 1997; […] et al., 2002). Following a 48 hr exposure to various inhibitors or diluents, MTT was added (final concentration of 0.5 mg/ml) to individual cultures for an additional 30 min. Tetrazolium was released by dimethyl sulfoxide and optical density was determined with a spectrophotometer (570 nm). Data were normalized to diluent-treated cultures.

[2] = tested on: renal proximal tubule cells (RPTC); assay: RPTC scattering, fibroblast-like morphology and lamellipodia (bright field, phalloidin staining); format: cell-based, rabbit; conditions: for effect of inhibitor on suramin-induced fibroblast-like phenotype and RPTC scattering: 50 μM suramin 24 hr, 10 μM AG1478, 20 μM LY294002, 10 μM U0126 or 10 μM PP1
Description: (§1) Isolation and culture of renal proximal tubules: Isolation and culture of renal proximal tubules were performed as described previously (Rodeheaver et al., 1990; Nowak and Schnellmann, 1995; Nowak and Schnellmann, 1996). Female New Zealand White rabbits (1.5-2.5 kg) were purchased from Myrtle's Rabbitry (Thompson Station, Tenn.). RPTC were isolated using the iron oxide perfusion method and grown in 6-well tissue culture dishes under improved conditions. The culture medium was an 1:1 mixture of DMEM/Ham's F-12 (without glucose, phenol red, or sodium pyruvate) supplemented with 15 mM HEPES buffer, 2.5 mM L-glutamine, 1 μM pyridoxine HCl, 15 mM sodium bicarbonate, and 6 mM lactate. Hydrocortisone (50 μM), selenium (5 ng/ml), human transferrin (5 μg/ml) bovine insulin (10 nM) and L-ascorbic acid-2-phosphate (50 μM) were added daily to fresh culture medium.
(§2) Isolated tubules were plated at 1 mg protein/well in a 6-well plate. On day 2, RPTC were incubated in the presence and absence of various pharmacological inhibitors for different time periods as indicated in the figure legends. For some experiments, suramin was added to RPTC on day 3 and then incubated for 24 hr in the presence or absence of various inhibitors before samples were taken.
Immunocytochemistry: After various treatments, RPTC were fixed with 10% buffered formalin, washed, permeabilized, and blocked with BSA. Fluorescein conjugated phalloidin was added and RPTC visualized by fluorescent microscopy.

EGF receptor = assay: Immunoblot of EGF receptor phosphorylation (Tyr1068) in RPTC; format: cell-based, rabbit
Description: (§3) Preparation of cell lysates and immunoblot analysis: After different treatments, RPTC were washed twice with PBS and harvested in lysis buffer (0.25 M Tris-HCl, pH 6.8, 4% SDS, 10% glycerol, 1 mg/ml bromophenol blue, and 0.5% 2-mercaptoethanol). Cells were disrupted by sonication for 15 seconds and lysates stored at −20 °C. Equal amounts of cellular protein lysate were separated on 10% polyacrylamide gels and transferred to nitrocellulose membranes. After treatment with 5% skim milk at 4 °C overnight, membranes were incubated with various antibodies for 1 hr, and then incubated with an appropriate horseradish-peroxidase conjugated secondary antibody (Amersham, Piscataway, N.J.). Bound antibodies were visualized following chemiluminescence detection on autoradiographic film.
To determine whether suramin caused EGF receptor activation, we performed immunoblot analysis using an antibody against phosphorylated tyrosine 1068 of the EGF receptor. Total EGF receptor content was measured using immunoblot analysis and an antibody that recognizes the EGF receptor independent of its phosphorylation state to control for gel loading. […] Thus, suramin induced RPTC proliferation and scattering is not through the EGF receptor.

Akt = assay: Immunoblot of Akt phosphorylation in RPTC; format: cell-based, rabbit; conditions: for effect of inhibitor on Akt phosphorylation: pretreated 1 hr with 20 μM LY294002, or 10 μM PP1, or AG1478, 50 μM suramin 30 min
Description: as §3
We evaluated whether the PI3K/Akt and/or ERK1/2 pathways are activated in RPTC in response to suramin. The activation of the PI3K and ERK1/2 pathways was measured using immunoblot analysis and antibodies that recognize phosphorylated Akt at serine 473 (a target of PI3K) and ERK1/2, respectively. Total Akt and ERK1/2 content was measured using immunoblot analysis and antibodies that recognize the Akt and ERK1/2 independent of their phosphorylation state to control for gel loading. Suramin-induced Akt phosphorylation within 10 min, reached a maximum at 30 min and was sustained through 120 min of treatment (FIG. 6A). ERK1/2 phosphorylation also was induced within 10 min and maximal at 30 min, but decreased to the control levels at 120 min.

[3] = tested on: renal proximal tubule cells (RPTC); assay: Cell cycle analysis by flow cytometry: number of RPTC in S-phase; format: cell-based, rabbit; conditions: for effect of inhibitor on suramin-induced RPTC proliferation (number of RPTC in S-phase): 50 μM suramin 24 hr, 20 μM LY294002, 10 μM U0126 or 10 μM PP1
Description: as §1, §2
Cell cycle analysis: Cell cycle phase was determined using flow cytometry as previously described (Zhuang et al., 2004). Cells were harvested, stained with propidium iodide and the number of cells in S-phase of cell cycle determined.

Src = assay: Immunoblot of Src phosphorylation (Tyr416, Tyr527) in RPTC; format: cell-based, rabbit
Description: as §3
To determine whether suramin activates Src and whether Src mediates Akt activation, we examined the effect of suramin on Src phosphorylation and the effect of PP1 on suramin-induced Akt phosphorylation. Src activation requires dephosphorylation of tyrosine 527 (Zheng et al., 2000) and phosphorylation of tyrosine 416 in the catalytic domain (Leu and Maa, 2003). Src phosphorylation at tyrosine 416 was detected in control samples. Following suramin-treatment, Src phosphorylation increased within 10 min and returned to the basal level at 60 min (FIG. 8A). […] Thus, suramin-induced RPTC proliferation and scattering is dependent on Src activity and Src is required for activation of the PI3K/Akt signaling pathway.

[4] = tested on: renal proximal tubule cells (RPTC); assay: RPTC outgrowth from plated renal proximal tubules (photographs); format: cell-based, rabbit; conditions: after 24 hr exposed for 24 hr, 50 μM suramin, 10 ng/ml EGF or suramin+EGF
Description: as §1, §2

ERK1/2 = assay: Immunoblot of ERK1/2 phosphorylation in RPTC; format: cell-based, rabbit
Description: as §3
We evaluated whether the PI3K/Akt and/or ERK1/2 pathways are activated in RPTC in response to suramin. The activation of the PI3K and ERK1/2 pathways was measured using immunoblot analysis and antibodies that recognize phosphorylated Akt at serine 473 (a target of PI3K) and ERK1/2, respectively. Total Akt and ERK1/2 content was measured using immunoblot analysis and antibodies that recognize the Akt and ERK1/2 independent of their phosphorylation state to control for gel loading.

[5] = tested on: mouse renal ischemic/reperfusion (I/R) acute renal failure model; assay: Mouse renal ischemic/reperfusion (I/R) acute renal failure model, serum creatinine; format: in vivo
Description: Experiments were designed to investigate whether suramin stimulated recovery of renal function in a mouse renal ischemic/reperfusion (I/R) acute renal failure model. Male C57BL/6 mice weighing 25-30 g were subjected to I/R injury using bilateral renal artery clamping for 26 min and then allowed to recover over time. The renal pedicles were isolated, but no clamps were applied in the sham group. Some mice subjected to I/R were treated with a single intravenous dose of suramin (0.001-10 mg/kg) or diluent 24 hr after reperfusion. Blood was collected at 24 and 48 hr after injury and serum creatinine levels measured as a marker of acute renal failure.

COc1cc2ncnc(Nc3cccc(Cl)c3)c2cc1OC [AG1478, 4-(3-chloroanilino)-6,7-dimethoxyquinazoline]
effect of inhibitor on suramin-induced RPTC proliferation (MTT assay) [1]: did not affect suramin-induced RPTC proliferation
effect of inhibitor on EGF-induced fibroblast-like phenotype and scattering ([2]; 10 ng/ml EGF 24 hr, 10 μM AG1478): blocked EGF-induced formation of the fibroblast-like phenotype and scattering
effect of inhibitor on suramin-induced fibroblast-like phenotype and RPTC scattering [2]: did not affect suramin-induced formation of the fibroblast-like phenotype and scattering
effect of inhibitor on EGF-induced EGF receptor phosphorylation (EGF receptor; pretreated with 10 μM AG1478 for 1 hr, then EGF 10 min): inhibited EGF-induced EGF receptor phosphorylation
effect of inhibitor on Akt phosphorylation (Akt): did not affect suramin-induced phosphorylation of Akt

Cc1ccc(-c2nn(C(C)(C)C)c3ncnc(N)c23)cc1 [PP1]
effect of inhibitor on suramin-induced RPTC proliferation (number of RPTC in S-phase) [3]: inhibited RPTC proliferation in control and suramin-treated cells
effect of inhibitor on suramin-induced RPTC proliferation (MTT assay) [1]: inhibited RPTC proliferation in control and suramin-treated cells
effect of inhibitor on suramin-induced fibroblast-like phenotype and RPTC scattering [2]: blocked
effect of inhibitor on Akt phosphorylation (Akt): blocked suramin-induced phosphorylation of Akt
effect of inhibitor on suramin-induced Src phosphorylation (Src; PP1, suramin-treated RPTC): inhibition of suramin-induced Src and Akt phosphorylation

O=c1cc(N2CCOCC2)oc2c(-c3ccccc3)cccc12 [LY294002, 2-(4-Morpholinyl)-8-phenyl-4H-1-benzopyran-4-one]
effect of inhibitor on suramin-induced RPTC proliferation (number of RPTC in S-phase) [3]: decreased suramin-induced proliferation
effect of inhibitor on suramin-induced RPTC proliferation (MTT assay) [1]: decreased suramin-induced proliferation
effect of inhibitor on suramin-induced fibroblast-like phenotype and RPTC scattering [2]: partially inhibited
effect of inhibitor on Akt phosphorylation (Akt): blocked Akt phosphorylation

Cc1ccc(C(=O)Nc2ccc(S(=O)(=O)O)c3cc(S(=O)(=O)O)cc(S(=O)(=O)O)c23)cc1NC(=O)c1cccc(NC(=O)Nc2cccc(C(=O)Nc3cc(C(=O)Nc4ccc(S(=O)(=O)O)c5cc(S(=O)(=O)O)cc(S(=O)(=O)O)c45)ccc3C)c2)c1 [suramin]
RPTC outgrowth [4]: stimulated RPTC outgrowth
RPTC proliferation (S-phase) ([3]; 100 μM suramin, 24 hr, compared with 50 μM): did not further increase RPTC proliferation
RPTC in S-phase ([3]; 24 hr treatment, four days following plating, suramin 50 μM, EGF 10 ng/ml, untreated approximately 20%): 29%
number of RPTC in S-phase ([3]; suramin concentrations lower than 50 μM, 24 hr): did not statistically increase the number of RPTC in S-phase
increase in the number of RPTC (MTT assay) ([1]; 48 hr exposure, 50 μM suramin, versus diluent controls): approximately 40%
formation of lamellipodia and intercellular contacts ([2]; 50 μM suramin or 10 ng/ml EGF, 24 hr, phalloidin staining): increased the formation of lamellipodia and decreased intercellular contacts
RPTC morphology at the edge of the cell island (scattering) ([2]; 50 μM suramin, 24 hr, RPTC cultured 3 days): lost contact with their neighbors and became elongated, fibroblast-like cells
EGF receptor phosphorylation (tyrosine 1068) (EGF receptor; 50 μM suramin, 10 ng/ml EGF or both for 10 min): did not detect phosphorylated EGF receptor
Akt phosphorylation sustained through (Akt; 50 μM suramin, 0-120 min): ≥ 120 min
time of maximum Akt phosphorylation (Akt; 50 μM suramin, 0-120 min): 30 min
time to induction of Akt phosphorylation (Akt; 50 μM suramin, 0-120 min): ≤ 10 min
time at which ERK1/2 phosphorylation decreased to the control levels (ERK1/2; 50 μM suramin, 0-120 min): 120 min
time of maximal ERK1/2 phosphorylation (ERK1/2; 50 μM suramin, 0-120 min): 30 min
time to induction of ERK1/2 phosphorylation (ERK1/2; 50 μM suramin, 0-120 min): ≤ 10 min
reduced phosphorylation of Src at tyrosine 527 sustained through (Src; 50 μM suramin): ≥ 120 min
time at which Src phosphorylation (tyrosine 416) returned to the basal level (Src; 50 μM suramin): 60 min
time to increase of Src phosphorylation at tyrosine 416 (Src; 50 μM suramin): ≤ 10 min
time to reduced phosphorylation of Src at tyrosine 527 (Src; 50 μM suramin): ≤ 5 min
renal function ([5]; doses of suramin greater than or equal to 0.1 mg/kg, single intravenous dose 24 hr after reperfusion): completely restored renal function
recovery of renal function ([5]; low doses (0.1 mg/kg), given after acute renal failure is fully established): complete recovery of renal function
serum creatinine levels ([5]; single intravenous suramin dose between 0.003 and 0.03 mg/kg 24 hr after reperfusion, I/R plus diluent approximately 2 mg/dl): approximately 1 mg/dl

N#CC(=C(N)Sc1ccccc1N)C(C#N)=C(N)Sc1ccccc1N [U0126, 1,4-Diamino-2,3-dicyano-1,4-bis(2-aminophenylthio)butadiene]
effect of inhibitor on suramin-induced RPTC proliferation (number of RPTC in S-phase) [3]: had no effect on proliferation
effect of inhibitor on suramin-induced RPTC proliferation (MTT assay) [1]: had no effect on proliferation
effect of inhibitor on suramin-induced fibroblast-like phenotype and RPTC scattering [2]: had no effect
effect of inhibitor on ERK1/2 phosphorylation (ERK1/2; pretreated with 10 μM U0126 for 1 hr, presence and absence of 50 μM suramin (30 min)): blocked ERK1/2 phosphorylation
